Test results reported in patent US20120238915A1, “SOUND WAVE TREATMENT PLATFORM AND SOUND WAVE TREATMENT METHOD” (priority 2011, published 2012).

How the values were obtained:
[1] = tested on: non-operable pancreatic cancer
[2] = tested on: terminal metastatic ovarian cancer; assay: Example 10: patient treated with non-focused sound waves with Bleomycin; format: in vivo, human
Description: person five was diagnosed with terminal metastatic ovarian cancer with colostomy and complained of abdominal pain.
The patient was treated twice (one week apart) according to the present invention combined with 30 mg Bleomycin each time (Frequency: 0.3 MHz; power intensity: less than 2 W/cm^2; duration: less than 30 minutes (each time)). […] They remained pain free for over 8 months till their death due to sepsis.

[3] = tested on: metastatic pancreatic cancer to liver; assay: Example 4: patient treated with non-focused sound waves with Bleomycin; format: in vivo, human; details: 30 mg Bleomycin + sound waves 0.3 MHz
Description: person three was diagnosed with metastatic pancreatic cancer to liver and has been treated with Palliative bypass operation. No chemotherapy history. They were in very terminal stage with severe jaundice and great pain. They used Fetanyl patch and additional pain medication. The patient was treated according to the present invention with 30 mg Bleomycin (Frequency: 0.3 MHz; power intensity: less than 2 W/cm^2; duration: less than 30 minutes). […] They remained pain free for 4 days till their death due to hepatic failure.

[4] = tested on: metastatic pancreatic cancer to liver; assay: Example 1: patient treated with non-focused sound waves with Bleomycin; format: in vivo, human; details: 30 mg Bleomycin + sound waves 0.3 MHz
Description: person one was diagnosed with metastatic pancreatic cancer to liver. Treatment history was as follows: Gemcitabine, Tykerb, Xeloda, and 6000R radiation therapy. Despite multiple treatments, patient's condition continues to worsen with increased abdominal pain. The patient was taking pain medication with constipation.
The patient was treated according to the present invention with 30 mg Bleomycin (Frequency: 0.3 MHz; power intensity: less than 2 W/cm^2; duration: less than 30 minutes). […] Their tumor marker CA19-9 decreased from 1465 to 406 in 9 days after the treatment. They remained pain free for 150 days after the treatment till their death clue to organ failure.

[5] = tested on: metastatic pancreatic cancer to liver; assay: Example 3: patient treated with non-focused sound waves with Bleomycin; details: 30 mg Bleomycin + sound waves 0.3 MHz
[6] = tested on: recurrent pancreatic cancer; details: human, in vivo
[7] = tested on: metastatic oral cancer to the face; assay: Example 7: patient treated with non-focused sound waves with Bleomycin; format: in vivo, human; details: 30 mg Bleomycin + sound waves 0.3 MHz
Description: person six was diagnosed with metastatic oral cancer to the face, and complained of severe facial pain. They have been treated with multiple surgery and chemoradiation. They presented with a large area of metastatic facial mass, and their right eye was bulging due to tumor infiltration.
(§1) The patient was treated according to the present invention with 30 mg Bleomycin (Frequency: 0.3 MHz; power intensity: less than 2 W/cm^2; duration: less than 30 minutes).

[8] = tested on: recurrent breast cancer and metastasis to the liver; assay: Example 9: patient treated with non-focused sound waves with Bleomycin; format: in vivo, human
Description: person two was diagnosed with recurrent breast cancer and metastasis to the liver. They had multiple chemotherapy and target medicine treatment.
The patient was treated twice (one week apart) according to the present invention with 30 mg Bleomycin each time (Frequency: 0.3 MHz; power intensity: less than 2 W/cm^2; duration: less than 30 minutes (each time)). […] Their right upper quadrant pain resolved and remained pain free over 18 months till last follow up.

terminal hepatoma = assay: Example 8: patient treated with non-focused sound waves with Bleomycin; format: in vivo, human; details: 30 mg Bleomycin + sound waves 0.3 MHz
Description: person four was diagnosed with terminal hepatoma and liver pain.
as §1

metastatic breast cancer = assay: Example 6: patient treated with non-focused sound waves with Bleomycin; format: in vivo, human; details: 30 mg Bleomycin + sound waves 0.3 MHz
Description: person two was diagnosed with metastatic breast cancer, and complained of three weeks left shoulder pain.
as §1

[9] = person two, 30 mg Bleomycin + sound waves 0.3 MHz

With `Nc1ccn([C@@H]2O[C@H](CO)[C@@H](O)C2(F)F)c(=O)n1` [Gemcitabine] as the compound, how does the “tumor growth in diameter” value ([1]; during at least four months of weekly Gemcitabine, after Bleomycin + sound wave treatments) read?
Its value is 1.4 cm.

What does the source list for Bleomycin?
side effect ([2]; person five, 30 mg Bleomycin + sound waves 0.3 MHz): no side effect; abdominal pain ([2]; person five, after the first of two treatments one week apart, 30 mg Bleomycin each + sound waves 0.3 MHz, <2 W/cm^2, <30 min): resolved; remained pain free ([2]; till death due to sepsis, 30 mg Bleomycin twice + sound waves): over 8 months; jaundice ([1]; after Bleomycin + sound wave treatments and weekly Gemcitabine): did not have jaundice; blood sugar ([1]; insulin dependent diabetic patient, after the treatment, remained till death): returned to normal level without using insulin; side effect [1, 9]: no side effect was observed; pancreatic region pain ([1]; person two, after the first treatment, 30 mg Bleomycin + sound waves 0.3 MHz, <2 W/cm^2, <30 min): resolved; remained pain free after the treatment ([1]; till death, 30 mg Bleomycin three times (third followed by 1000 mg Gemcitabine) + sound waves): 183 days; pain medication use after treatment [3]: without using anymore pain medication; side effect ([3]; person three): no side effect was observed; time in which pain vanished ([3]; person three, one treatment): 6 h; pain ([3]; person three, one treatment, <2 W/cm^2, <30 min): totally vanished; remained pain free ([3]; till death due to hepatic failure): 4 days; tumor marker CA19-9 ([4]; decreased from 1465, in 9 days after the treatment): 406; constipation symptom ([4]; person one, after the treatment): relieved; pain medication use after treatment ([4]; person one, one treatment): has not taken any pain medication since the treatment; side effect ([4]; person one, one treatment): no side effect was observed; patient's pain ([4]; person one, one treatment, <2 W/cm^2, <30 min): dissolved; remained pain free after the treatment ([4]; till death due to organ failure): 150 days; pain free [5]: 32 days; side effect ([5]; person seven): no side effect was observed; patient's pain ([5]; person seven, one treatment, <2 W/cm^2, <30 min): totally dissolved; pain medication use after treatment ([5]; until death due to sepsis): without using any pain medication; body weight [6]: increased; pain medication use after treatment [6]: has not taken any pain medication since the first treatment till their death; pain scale [6]: 0-1; physical activity [6]: returned to near normal; remained pain free after the treatment [6]: 170 days; side effect [6]: no side effect was observed; survival after first diagnosis [6]: lived two years after their first diagnosis; facial tumor size [7]: decreased in size; right eye (bulging due to tumor infiltration) [7]: less bulging and could rotate; side effect ([7]; person six): no side effect; facial pain ([7]; person six, one treatment, <2 W/cm^2, <30 min): totally resolved; remained pain free ([7]; till last follow up): over 33 days; right upper quadrant pain ([8]; 30 mg Bleomycin twice + sound waves 0.3 MHz): resolved; liver tumor diameter (imaging study), second tumor ([8]; decreased from 7 cm, after the first treatment): 4 cm; liver tumor diameter (imaging study), first tumor ([8]; decreased from 10 cm, after the first treatment): 7 cm; side effect [8, 9]: no side effect; liver tumors size ([8]; person two, after the first of two treatments one week apart, 30 mg Bleomycin each + sound waves 0.3 MHz, <2 W/cm^2, <30 min): significantly decreased in size; follow up imaging studies ([8]; several follow up imaging studies, 30 mg Bleomycin twice + sound waves): stable liver metastasis; remained pain free ([8]; till last follow up, 30 mg Bleomycin twice + sound waves): over 18 months; pain free till death (terminal hepatoma): 14 days; side effect (terminal hepatoma; person four): no side effect; right quadrant pain (terminal hepatoma; person four, one treatment, <2 W/cm^2, <30 min): vanished; pain free duration (metastatic breast cancer): over seven months; side effect (metastatic breast cancer; person two, one treatment, <2 W/cm^2, <30 min): no side effect was observed; shoulder pain (metastatic breast cancer; till death due to brain metastasis): did not have shoulder pain
